target: Human Factor D (Homo sapiens (Human), UniProt P00746); assay: Human Factor D Assay; format: biochemical; conditions: Table 5; Human Factor D 80 nM, substrate Z-L-Lys-SBzl; read-out: IC50 (Stars)
Procedure, shortened: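 Serum-purified human factor D (80 nM final) preincubated with compound 5 min at room temperature in 50 mM Tris, 1 M NaCl, pH 7.5. Z-L-Lys-SBzl and DTNB added at 100 μM each; A405 followed every 30 s for 30 min. IC50 by nonlinear regression of rates.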

Sequence of Human Factor D (P00746 26-253): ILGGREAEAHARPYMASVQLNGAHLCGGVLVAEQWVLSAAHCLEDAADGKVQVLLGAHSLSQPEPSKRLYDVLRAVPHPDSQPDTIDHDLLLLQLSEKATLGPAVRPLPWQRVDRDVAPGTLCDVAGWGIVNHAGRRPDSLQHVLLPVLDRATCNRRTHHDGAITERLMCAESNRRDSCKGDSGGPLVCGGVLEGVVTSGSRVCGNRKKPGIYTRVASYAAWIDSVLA

Structure (SMILES)	IC50
CC(=O)c1nn(CC(=O)N2[C@H]3C[C@@]3(C)C[C@H]2C(=O)Nc2nc(Br)ccc2C)c2c(S(C)(=N)=O)cccc12 (stereo partly drawn) [Compound T-36, (1S,3S,5S)-2-(2-(3-acetyl-7-(S-methylsulfonimidoyl)-1H-indazol-1-yl)acetyl)-N-(6-bromo-3-methylpyridin-2-yl)-5-methyl-2-azabicyclo[3.1.0]hexane-3-carboxamide]	> 10 µM
CC(=O)c1cn(CC(=O)N2[C@H](C(=O)NCc3cccc(Cl)c3F)C[C@@]3(CN(C)C)C[C@@H]23)c2cc(P(C)(=O)O)ccc12 [Compound T-47, (3-acetyl-1-(2-((1R,3S,5R)-3-((3-chloro-2-fluorobenzyl)carbamoyl)-5-((dimethylamino)methyl)-2-azabicyclo[3.1.0]hexan-2-yl)-2-oxoethyl)-1H-indol-6-yl)(methyl)phosphinic acid]	< 1 µM

same assay, conditions: Table 7; read-out: IC5 (Stars)

Structure (SMILES)	IC50
Cc1ccc(Br)nc1NC(=O)[C@@H]1C[C@@]2(C)C[C@H]2N1C(=O)Cc1ccc2[nH]nc(C#N)c2c1 [Compound T-94, (1R,3S,5R)-N-(6-bromo-3-methylpyridin-2-yl)-2-(2-(3-cyano-1H-indazol-5-yl)acetyl)-5-methyl-2-azabicyclo[3.1.0]hexane-3-carboxamide]	> 10 µM
CC(=O)c1nn(CC(=O)N2[C@H](C(=O)Nc3nc(Br)ccc3C)C[C@@]3(C)C[C@@H]23)c2ccc(Nc3cccn(-c4ccccn4)c3=O)cc12 [Compound T-92, (1R,3S,5R)-2-(2-(3-acetyl-5-((2-oxo-2H-[1,2′-bipyridin]-3-yl)amino)-1H-indazol-1-yl)acetyl)-N-(6-bromo-3-methylpyridin-2-yl)-5-methyl-2-azabicyclo[3.1.0]hexane-3-carboxamide]	< 1 µM
CC(=O)c1nn(CC(=O)N2[C@H](C(=O)Nc3nc(Br)ccc3C)C[C@@]3(C)C[C@@H]23)c2cc3sc(C)nc3cc12 [Compound T-84, (1R,3S,5R)-2-(2-(3-acetyl-6-methyl-1H-thiazolo[4,5-f]indazol-1-yl)acetyl)-N-(6-bromo-3-methylpyridin-2-yl)-5-methyl-2-azabicyclo[3.1.0]hexane-3-carboxamide]	< 1 µM
Cc1ccc(Br)nc1NC(=O)[C@@H]1C[C@@]2(C)C[C@H]2N1C(=O)Cc1ccc2[nH]nc(Cl)c2c1 [Compound T-99, (1R,3S,5R)-N-(6-bromo-3-methylpyridin-2-yl)-2-(2-(3-chloro-1H-indazol-5-yl)acetyl)-5-methyl-2-azabicyclo[3.1.0]hexane-3-carboxamide]	1 to 10 µM
